What all share (format): biochemical
The target of one experiment is T1, KDM5B (PLU-1) (Homo sapiens, UniProt Q9UGL1).
T1 sequence (Q9UGL1 1-809): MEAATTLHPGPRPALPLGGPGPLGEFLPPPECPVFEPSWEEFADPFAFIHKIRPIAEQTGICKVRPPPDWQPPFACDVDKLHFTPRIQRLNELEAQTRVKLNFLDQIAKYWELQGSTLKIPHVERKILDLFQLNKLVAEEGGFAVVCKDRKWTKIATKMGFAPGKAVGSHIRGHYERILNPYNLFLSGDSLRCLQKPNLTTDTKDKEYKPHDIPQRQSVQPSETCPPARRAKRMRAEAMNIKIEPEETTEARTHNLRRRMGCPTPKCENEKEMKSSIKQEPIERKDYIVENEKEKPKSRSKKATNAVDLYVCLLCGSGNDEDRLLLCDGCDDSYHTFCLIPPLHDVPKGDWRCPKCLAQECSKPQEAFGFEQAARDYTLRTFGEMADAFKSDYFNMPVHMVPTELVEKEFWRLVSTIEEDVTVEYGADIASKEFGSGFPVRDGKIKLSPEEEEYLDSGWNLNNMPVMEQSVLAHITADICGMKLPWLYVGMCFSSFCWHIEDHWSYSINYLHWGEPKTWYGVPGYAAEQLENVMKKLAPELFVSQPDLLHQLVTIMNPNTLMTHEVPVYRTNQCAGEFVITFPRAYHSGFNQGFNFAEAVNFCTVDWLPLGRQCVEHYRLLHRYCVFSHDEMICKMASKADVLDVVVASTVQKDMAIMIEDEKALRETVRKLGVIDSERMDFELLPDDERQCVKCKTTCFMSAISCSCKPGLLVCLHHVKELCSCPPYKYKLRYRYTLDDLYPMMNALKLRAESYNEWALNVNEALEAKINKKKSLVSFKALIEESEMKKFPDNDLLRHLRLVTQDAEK
The experiment is described as follows: Histone lysine demethylase AlphaLISA assay, KDM5B. As to conditions: read-out: KDM5B HDME Inhibition IC50. The essentials:
(§1)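 Steps: enzyme equilibrated 10 min in buffer; compounds in 3% DMSO solution added, 10 min; substrate mix added (peptide, 25 μM L-Asc, 10 μM α-KG), room temperature; acceptor beads, then streptavidin donor beads, dark incubations; plate read.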

The next experiment concerns the target T2, KDM4C (JMJD2C) (Homo sapiens, UniProt Q9H3R0).
T2 sequence (Q9H3R0 1-349): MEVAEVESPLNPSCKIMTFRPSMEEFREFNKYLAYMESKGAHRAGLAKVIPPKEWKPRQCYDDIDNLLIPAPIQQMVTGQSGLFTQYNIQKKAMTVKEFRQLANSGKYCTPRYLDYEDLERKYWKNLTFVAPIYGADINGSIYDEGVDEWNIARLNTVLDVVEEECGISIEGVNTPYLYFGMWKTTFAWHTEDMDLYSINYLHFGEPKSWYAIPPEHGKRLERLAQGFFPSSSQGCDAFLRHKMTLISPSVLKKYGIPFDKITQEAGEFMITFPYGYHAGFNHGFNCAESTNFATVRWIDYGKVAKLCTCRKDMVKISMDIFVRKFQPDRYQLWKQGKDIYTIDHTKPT
As to the kind of experiment: Histone lysine demethylase AlphaLISA assay, KDM4C. As to conditions: read-out: KDM4C HDME Inhibition IC50. The essentials: as §1

The target in the next experiment is T3, KDM7 (PHF8) (Homo sapiens, UniProt Q9UPP1).
T3 construct: KDM7 (PHF8); BRIC; 1-1322; Bac
T3 sequence (Q9UPP1 37-440 limits assumed): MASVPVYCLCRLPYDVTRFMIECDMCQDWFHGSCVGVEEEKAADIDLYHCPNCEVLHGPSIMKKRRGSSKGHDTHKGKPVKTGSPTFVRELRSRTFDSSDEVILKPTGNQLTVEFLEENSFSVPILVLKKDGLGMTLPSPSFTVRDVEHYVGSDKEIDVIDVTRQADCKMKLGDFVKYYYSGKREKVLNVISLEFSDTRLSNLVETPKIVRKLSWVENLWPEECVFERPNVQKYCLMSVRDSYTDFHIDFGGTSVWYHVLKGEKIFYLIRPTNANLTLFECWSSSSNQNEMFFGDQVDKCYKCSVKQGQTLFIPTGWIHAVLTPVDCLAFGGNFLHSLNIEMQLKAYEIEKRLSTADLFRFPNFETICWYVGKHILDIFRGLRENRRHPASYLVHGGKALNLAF
The experiment is described as follows: Histone lysine demethylase AlphaLISA assay, KDM7. The settings on record: read-out: PHF8 HDME Inhibition IC50. The procedure:
(§2) Assays are performed analogously to the protocol described by PerkinElmer (Roy et al. PerkinElmer Technical Note: AlphaLISA #12, April 2011)
(§3) Enzymes are dissolved in enzyme buffer and incubated for 10 min before being added to 3% DMSO solutions of compounds in enzyme buffer. Incubated for another 10 minutes, before substrate solution is added and the reaction mixture is incubated at room temperature. 10 μL acceptor beads, suspended in Epigenetic Buffer (Perkin Elmer AL008) from stock, are added and the suspension is incubated in the dark at room temperature, before a suspension of streptavidin donor beads (Perkin Elmer 6760002) in Epigenetic Buffer is added. After incubation at room temperature in the dark the plates are read. […]
BK9M2: Biotin-ARTKQTAR(KMe2)STGGKAPRKQ-NH2 (AnaSpec 64359)
BK9M1: Biotin-ARTKQTAR(KMe1)STGGKAPRKQ-NH2 (AnaSpec 64358) […]
(§4) Substrate Solution: Substrate, 25 μM L-Asc, and 10 μM α-KG in Buffer A.
(In general: In Alpha technology, singlet oxygen from a donor bead excites a nearby acceptor bead.)

The target in another experiment is T4, KDM6B (JMJD3) (Homo sapiens, UniProt O15054).
T4 construct: 1043-end; purchased BPS; host or cells: Bac (baculovirus system)
T4 sequence (O15054 1043-1682 isoform O15054-1 limits assumed): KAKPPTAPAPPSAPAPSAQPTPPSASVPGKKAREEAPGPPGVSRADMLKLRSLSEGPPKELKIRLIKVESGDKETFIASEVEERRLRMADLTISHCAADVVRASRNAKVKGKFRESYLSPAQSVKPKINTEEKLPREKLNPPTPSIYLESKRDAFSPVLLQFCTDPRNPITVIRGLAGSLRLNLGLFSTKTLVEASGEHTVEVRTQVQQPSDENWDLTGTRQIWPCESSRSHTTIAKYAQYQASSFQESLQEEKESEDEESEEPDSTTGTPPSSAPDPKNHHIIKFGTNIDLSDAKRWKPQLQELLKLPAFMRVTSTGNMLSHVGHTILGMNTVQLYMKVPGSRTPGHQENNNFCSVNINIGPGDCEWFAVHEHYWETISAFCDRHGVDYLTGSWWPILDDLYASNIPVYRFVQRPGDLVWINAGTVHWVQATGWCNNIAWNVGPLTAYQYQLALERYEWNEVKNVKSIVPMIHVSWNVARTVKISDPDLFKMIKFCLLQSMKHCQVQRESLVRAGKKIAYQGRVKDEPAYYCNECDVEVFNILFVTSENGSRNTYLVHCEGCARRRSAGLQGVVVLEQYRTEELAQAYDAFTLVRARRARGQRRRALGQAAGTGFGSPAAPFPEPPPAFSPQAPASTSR
The experiment is described as follows: Histone lysine demethylase AlphaLISA assay, KDM6B. The settings on record: read-out: KDM6B HDME Inhibition IC50. Here is the method: as §2, §3
BK27M3: Biotin-ATKAAR(Kme3)SAPATGGVKKPHRY-NH2? (Caslo, Denmark) […]
as §4

Another experiment concerns the target T5, KDM4A (JMJD2A) (Homo sapiens, UniProt O75164).
T5 construct: 1-350; purchased BPS Bioscience, US; host or cells: E. coli
T5 sequence (O75164 1-350): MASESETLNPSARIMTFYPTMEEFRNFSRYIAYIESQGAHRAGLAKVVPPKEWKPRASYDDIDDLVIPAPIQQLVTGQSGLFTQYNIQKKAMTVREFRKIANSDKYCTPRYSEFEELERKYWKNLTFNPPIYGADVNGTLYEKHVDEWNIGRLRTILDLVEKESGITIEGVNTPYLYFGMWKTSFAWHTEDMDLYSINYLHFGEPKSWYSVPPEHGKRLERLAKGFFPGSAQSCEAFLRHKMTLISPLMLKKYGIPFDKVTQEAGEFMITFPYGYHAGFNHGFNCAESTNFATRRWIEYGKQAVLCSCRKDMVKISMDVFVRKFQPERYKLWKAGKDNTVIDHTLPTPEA
As to the kind of experiment: Histone lysine demethylase AlphaLISA assay, KDM4A. As to conditions: read-out: KDM4A HDME Inhibition IC50. Here is the method:
as §2
Enzymes are dissolved in enzyme buffer and incubated for 10 min before being added to 3% DMSO solutions of compounds in enzyme buffer. Incubated for another 10 minutes, before substrate solution is added and the reaction mixture is incubated at room temperature. 10 μL acceptor beads, suspended in Epigenetic Buffer (Perkin Elmer AL008) from stock, are added and the suspension is incubated in the dark at room temperature, before a suspension of streptavidin donor beads (Perkin Elmer 6760002) in Epigenetic Buffer is added. After incubation at room temperature in the dark the plates are read.
BK9M3: Biotin-ARTKQTAR(KMe3)STGGKAPRKQ-NH2 (Caslo, Denmark) […]
as §4

For the molecule `CC(C)C[C@H](NCc1cc(/C=N/CCO)ccn1)C(=O)N1CCCCC1` [Compound 95, (2S)-2-[({4-[[(2-hydroxyethyl)imino]-methyl]pyridin-2-yl}methyl)amino]-4-methyl-1-(piperidin-1-yl)pentan-1-one], the 50% inhibitory concentration (IC50) at KDM5B (PLU-1) and on KDM4C (JMJD2C) was greater than 2500 nM in each case.

Regarding `CCN(CC(C)(C)N(C)C)C(=O)CNCc1cc(C=O)ccn1` [Compound 118, N-[2-(dimethylamino)-2-methylpropyl]-N-ethyl-2-{[(4-formylpyridin-2-yl)methyl]amino}-acetamide], the results for the IC50 at KDM5B (PLU-1), at KDM4C (JMJD2C) and at KDM7 (PHF8) were less than 250 nM, less than 250 nM and 250 to 2500 nM, respectively.

`CCN(CC)C(=O)CNCc1cc(C=O)ccn1` [Compound 105, N,N-diethyl-2-{[(4-formylpyridin-2-yl)methyl]amino}-acetamide]: the IC50 (usually the point on the concentration scale where inhibition reaches its midpoint) at KDM5B (PLU-1) was 250 to 2500 nM; on KDM4C (JMJD2C), greater than 2500 nM; on KDM6B (JMJD3), greater than 2500 nM; on KDM4A (JMJD2A), greater than 2500 nM.

As for `NCc1ccnc(CNCCCCN2CCC2)c1` [Compound 7, [2-({[4-(azetidin-1-yl)butyl]amino}methyl)-pyridin-4-yl]-methanamine], the IC50 on KDM5B (PLU-1) is 250 to 2500 nM; at KDM4C (JMJD2C), greater than 2500 nM; at KDM6B (JMJD3) it was greater than 2500 nM; at KDM7 (PHF8) it was greater than 2500 nM; at KDM4A (JMJD2A) it was greater than 2500 nM.

On to `CCN(CCN(C)C)C(=O)CNCc1cc(C2OCC(Cc3ccccc3)CN2C(=O)C(F)(F)F)ccn1` (stereo not drawn) [Compound 90, 2-[({4-[5-benzyl-3-(trifluoroacetyl)-1,3-oxazinan-2-yl]pyridin-2-yl}methyl)amino]-N-[2-(dimethylamino)-ethyl]-N-ethylacetamide], for which the values for the half-inhibitory concentration (IC50) on KDM5B (PLU-1), at KDM4C (JMJD2C) and at KDM7 (PHF8) were less than 250 nM, 250 to 2500 nM and greater than 2500 nM, respectively.

For the molecule `CC1CCCCN1CCCNCc1cc(CNC2CC2)ccn1` (stereo not drawn) [Compound 11, N-{[2-({[3-(2-methylpiperidin-1-yl)propyl]amino}methyl)-pyridin-4-yl]methyl}-cyclopropanamine], the IC50 on KDM5B (PLU-1) is 250 to 2500 nM; on KDM4C (JMJD2C) it was greater than 2500 nM; at KDM6B (JMJD3), greater than 2500 nM; at KDM7 (PHF8) it was greater than 2500 nM; on KDM4A (JMJD2A), greater than 2500 nM.

On to `CN(C)CC1CCC(CNCc2cc(C=O)ccn2)CC1` (stereo not drawn) [Compound 97, 2-{[({4-[(dimethylamino)-methyl]cyclohexyl}-methyl)amino]-methyl}pyridine-4-carbaldehyde], for which the IC50 was 250 to 2500 nM on KDM5B (PLU-1); greater than 2500 nM at KDM4C (JMJD2C); greater than 2500 nM at KDM6B (JMJD3); greater than 2500 nM at KDM7 (PHF8); greater than 2500 nM on KDM4A (JMJD2A).

Consider `OCC/N=C/c1ccnc(CNCCc2ccccc2OCc2ccccc2)c1` [Compound 93, 2-[({2-[({2-[2-(benzyloxy)phenyl]-ethyl}amino)methyl]-pyridin-4-yl}methylidene)-amino]ethan-1-ol], for which the IC50 at KDM5B (PLU-1), at KDM4C (JMJD2C) and at KDM7 (PHF8) was greater than 2500 nM in each case.

Consider `CN(Cc1ccccc1F)C(=O)CNCc1cc(/C=N/CCO)ccn1` [Compound 92, N-[(2-fluorophenyl)methyl]-2-[({4-[[(2-hydroxyethyl)imino]-methyl]pyridin-2-yl}methyl)amino]-N-methylacetamide], for which the figures for the concentration for half-maximal inhibition (IC50) on KDM5B (PLU-1), on KDM4C (JMJD2C) and at KDM7 (PHF8) were 250 to 2500 nM, greater than 2500 nM and greater than 2500 nM, respectively.

Turning to `CCN(CCN(C)C)C(=O)CNCc1cc(C2OCC3(CC3)CN2C(=O)C(F)(F)F)ccn1` (stereo not drawn) [Compound 91, N-[2--(dimethylamino)-ethyl]-N-ethyl-2-[({4-[7-(trifluoroacetyl)-5-oxa-7-azaspiro[2.5]-octan-6-yl]pyridin-2-yl}methyl)amino]-acetamide], the IC50 on KDM5B (PLU-1) was less than 250 nM; at KDM4C (JMJD2C), 250 to 2500 nM; at KDM7 (PHF8), greater than 2500 nM.

As for `CN(CCCNCc1cc(/C=N/C2CC2)ccn1)Cc1ccccc1` [Compound 41, N-({2-[({3-[benzyl(methyl)amino]-propyl}amino)methyl]-pyridin-4-yl}methylidene)-cyclopropanamine], the concentration for half-maximal inhibition (IC50) on KDM5B (PLU-1) was less than 250 nM; at KDM4C (JMJD2C) it was 250 to 2500 nM; at KDM6B (JMJD3) it was greater than 2500 nM; on KDM7 (PHF8), greater than 2500 nM; on KDM4A (JMJD2A) it was less than 250 nM.

As to `CN(C)CCCCNCc1cc(CNC2CC2)ccn1` [Compound 10, N-{[2-({[4-(dimethylamino)butyl]-amino}methyl)pyridin-4-yl]methyl}-cyclopropanamine], the IC50 on KDM5B (PLU-1), on KDM4C (JMJD2C), at KDM6B (JMJD3), at KDM7 (PHF8) and at KDM4A (JMJD2A) was greater than 2500 nM in each case.

In the case of `CCN(CC)CCCCNCc1cc(CN)ccn1` [Compound 5, [2-({[4-(diethylamino)butyl]-amino}methyl)pyridin-4-yl]methanamine], the IC50 at KDM5B (PLU-1), on KDM4C (JMJD2C), at KDM6B (JMJD3), on KDM7 (PHF8) and at KDM4A (JMJD2A) was greater than 2500 nM each time.

Regarding `CN(CC(=O)N1CCCCC1)Cc1cc(C=O)ccn1` [Compound 120, 2-({methyl[2-oxo-2-(piperidin-1-yl)ethyl]amino}-methyl)pyridine-4-carbaldehyde], the half-inhibitory concentration (IC50) at KDM5B (PLU-1) was greater than 2500 nM; at KDM4C (JMJD2C), greater than 2500 nM; on KDM7 (PHF8) it was 250 to 2500 nM.

For `CCN(CCC#N)C(=O)CNCc1cc(/C=N/CCO)ccn1` [Compound 94, N-(2-cyanoethyl)-N-ethyl-2-[({4-[[(2-hydroxyethyl)imino]-methyl]pyridin-2-yl}methyl)amino]-acetamide], the results for the half-maximal inhibitory concentration (IC50) at KDM5B (PLU-1), on KDM4C (JMJD2C) and on KDM7 (PHF8) were less than 250 nM, 250 to 2500 nM and 250 to 2500 nM, respectively.

The values are drawn from patent publication US9650339B2, “Inhibitors of histone demethylases” (Gilead Sciences, Inc., priority 2013, dated 2017).
